# In US11078228B2, “Ectonucleotidase inhibitors and methods of use thereof” (Calithera Biosciences, Inc., priority 2018, dated 2021):
# Target: recombinant CD73 (Homo sapiens (Human), UniProt P21589)
# Test: Assay 1: Inhibition of the CD73 enzyme in vitro (0.5 nM CD73, 30 min room temperature, Malachite Green)
# Assay type: biochemical
# Details: 0.5 nM CD73, 30 minutes at room temperature
# Experimental: For measurements of soluble CD73 enzyme activity, recombinant CD73 was obtained from R&D Systems, Cat. No. 5795-EN-010. […] Reactions were allowed to proceed for 30 minutes at room temperature before the addition of 100 μL Malachite Green (Cell Signaling Technology, Cat. No. 12776). After 5 minutes at room temperature, absorbance at 630 nm was determined on a microplate spectrophotometer. The concentration of inorganic phosphate was determined using a phosphate standard curve.
# recombinant CD73, sequence (P21589 27-547): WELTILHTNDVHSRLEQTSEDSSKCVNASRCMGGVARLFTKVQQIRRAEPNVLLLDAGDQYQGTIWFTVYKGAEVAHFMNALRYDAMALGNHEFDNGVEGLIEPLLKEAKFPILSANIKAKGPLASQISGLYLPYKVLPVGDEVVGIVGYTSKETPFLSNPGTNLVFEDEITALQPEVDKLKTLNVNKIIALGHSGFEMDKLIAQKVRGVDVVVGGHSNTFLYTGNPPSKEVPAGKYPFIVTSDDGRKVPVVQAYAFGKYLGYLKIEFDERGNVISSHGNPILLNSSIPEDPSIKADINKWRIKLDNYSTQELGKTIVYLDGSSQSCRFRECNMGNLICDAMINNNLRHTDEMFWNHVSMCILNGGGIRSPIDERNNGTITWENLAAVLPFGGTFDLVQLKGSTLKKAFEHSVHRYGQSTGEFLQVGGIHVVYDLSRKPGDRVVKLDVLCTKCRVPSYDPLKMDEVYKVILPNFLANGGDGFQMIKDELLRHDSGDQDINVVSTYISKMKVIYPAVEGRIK
row,SMILES,IC50
1,"C#C[C@@]1(O)[C@@H](COC(C(=O)O)S(C)(=O)=O)O[C@@H](n2cnc3c(NC4CCCC4)nc(Cl)nc32)[C@@H]1O (stereo partly drawn) [Example 120, 2-(((2R,3S,4R,5R)-5-(2-chloro-6-(cyclopentylamino)-9H-purin-9-yl)-3-ethynyl-3,4-dihydroxytetrahydrofuran-2-yl)methoxy)-2-(methylsulfonyl)acetic acid]",4.63 µM
2,"C#C[C@@]1(O)[C@@H](COC(C(=O)NO)c2cscn2)O[C@@H](n2cnc3c(N)nc(Cl)nc32)[C@@H]1O (single isomer, unassigned) [Example 186]",8.83 µM
3,"C#C[C@@]1(O)[C@@H](COC(C(=O)O)C(=O)O)O[C@@H](n2cnc3c(N)nc(Cl)nc32)[C@@H]1O [Example 26, 2-(((2R,3S,4R,5R)-5-(6-amino-2-chloro-9H-purin-9-yl)-3-ethynyl-3,4-dihydroxytetrahydrofuran-2-yl)methoxy)malonic acid]",0.058 µM
4,"C#C[C@@]1(O)[C@@H](CO[C@@](Cc2ccccc2)(C(=O)O)c2nnn[nH]2)O[C@@H](n2cnc3c(N)nc(Cl)nc32)[C@@H]1O [Example 192, (R)-2-(((2R,3S,4R,5R)-5-(6-amino-2-chloro-9H-purin-9-yl)-3-ethynyl-3,4-dihydroxytetrahydrofuran-2-yl)methoxy)-3-phenyl-2-(1H-tetrazol-5-yl)propanoic acid]",0.025 µM
5,"C#C[C@@]1(O)[C@@H](COCP(=O)(O)O)O[C@@H](n2cnc3c(NCc4ccccc4)nc(Cl)nc32)[C@@H]1O [Example 204, ((((2R,3S,4R,5R)-5-(6-(benzylamino)-2-chloro-9H-purin-9-yl)-3-ethynyl-3,4-dihydroxytetrahydrofuran-2-yl)methoxy)methyl)phosphonic acid]",0.1 µM
6,"C[C@@]1(O)[C@@H](CO[C@@](Cc2ccc(-c3ccccc3)cc2)(C(=O)O)c2cscn2)O[C@@H](n2cnc3c(N)nc(Cl)nc32)[C@@H]1O (single isomer, unassigned) [Example 199]",5.76 µM
7,"C#C[C@@]1(O)[C@@H](CO[C@](Cc2ccccc2)(C(=O)O)c2nnn[nH]2)O[C@@H](n2cnc3c(N)nc(Cl)nc32)[C@@H]1O [Example 191, (S)-2-(((2R,3S,4R,5R)-5-(6-amino-2-chloro-9H-purin-9-yl)-3-ethynyl-3,4-dihydroxytetrahydrofuran-2-yl)methoxy)-3-phenyl-2-(1H-tetrazol-5-yl)propanoic acid]",0.007 µM
8,"C#C[C@@]1(O)[C@@H](CO[C@](Cc2ccccc2)(C(=O)O)c2cscn2)O[C@@H](n2cnc3c(N)nc(Cl)nc32)[C@@H]1O (single isomer, unassigned) [Example 180]",0.009 µM
9,"C#C[C@@]1(O)[C@@H](COC(C(=O)OC)P(=O)(O)O)O[C@@H](n2cnc3c(N)nc(Cl)nc32)[C@@H]1O (stereo partly drawn) [Example 123, (1-(((2R,3S,4R,5R)-5-(6-amino-2-chloro-9H-purin-9-yl)-3-ethynyl-3,4-dihydroxytetrahydrofuran-2-yl)methoxy)-2-methoxy-2-oxoethyl)phosphonic acid]",0.071 µM
10,"C#C[C@@]1(O)[C@@H](COC(Cc2ccccc2)(C(=O)O)C(=O)O)O[C@@H](n2cnc3c(NC4CCCC4)nc(Cl)nc32)[C@@H]1O [Example 91, 2-benzyl-2-(((2R,3S,4R,5R)-5-(2-chloro-6-(cyclopentylamino)-9H-purin-9-yl)-3-ethynyl-3,4-dihydroxytetrahydrofuran-2-yl)methoxy)malonic acid]",0.0003 µM
11,"Nc1nc(Cl)nc2c1ncn2[C@@H]1O[C@H](COC(C(=O)O)C(=O)O)[C@](O)(C#Cc2cc[nH]n2)[C@H]1O [Example 27, 2-(((2R,3S,4R,5R)-3-((1H-pyrazol-3-yl)ethynyl)-5-(6-amino-2-chloro-9H-purin-9-yl)-3,4-dihydroxytetrahydrofuran-2-yl)methoxy)malonic acid]",0.018 µM
12,"C#C[C@@]1(O)[C@@H](COC(Cc2cccc(C(F)(F)F)c2)(C(=O)O)C(=O)O)O[C@@H](n2cnc3c(N)nc(Cl)nc32)[C@@H]1O [Example 50, 2-(((2R,3S,4R,5R)-5-(6-amino-2-chloro-9H-purin-9-yl)-3-ethynyl-3,4-dihydroxytetrahydrofuran-2-yl)methoxy)-2-(3-(trifluoromethyl)benzyl)malonic acid]",0.003 µM
13,"C#C[C@@]1(O)[C@@H](COP(=O)(O)CP(=O)(O)O)O[C@@H](n2cnc3c(NCc4ccccc4)nc(Cl)nc32)[C@@H]1O [Example 203, (((((2R,3S,4R,5R)-5-(6-(benzylamino)-2-chloro-9H-purin-9-yl)-3-ethynyl-3,4-dihydroxytetrahydrofuran-2-yl)methoxy)(hydroxy)phosphoryl)methyl)phosphonic acid]",0.0042 µM
14,"C#C[C@@]1(O)[C@@H](COC(Cc2cccc(C(=O)O)c2)(C(=O)O)c2cscn2)O[C@@H](n2cnc3c(N)nc(Cl)nc32)[C@@H]1O (stereo partly drawn) [Example 182, 3-(2-(((2R,3S,4R,5R)-5-(6-amino-2-chloro-9H-purin-9-yl)-3-ethynyl-3,4-dihydroxytetrahydrofuran-2-yl)methoxy)-2-carboxy-2-(thiazol-4-yl)ethyl)benzoic acid]",0.024 µM
15,"C#C[C@@]1(O)[C@@H](CO[C@@](C#N)(Cc2ccccc2)C(=O)O)O[C@@H](n2cnc3c(N)nc(Cl)nc32)[C@@H]1O (single isomer, unassigned) [Example 190]",9.32 µM
16,"C#C[C@@]1(O)[C@@H](COC(Cc2ccsc2)(C(=O)O)C(=O)O)O[C@@H](n2cnc3c(N)nc(Cl)nc32)[C@@H]1O [Example 24, 2-(((2R,3S,4R,5R)-5-(6-amino-2-chloro-9H-purin-9-yl)-3-ethynyl-3,4-dihydroxytetrahydrofuran-2-yl)methoxy)-2-(thiophen-3-ylmethyl)malonic acid]",0.0018 µM
17,"Nc1nc(Cl)nc2c1ncn2[C@@H]1O[C@H](COC(C(=O)O)C(=O)O)[C@](O)(C#Cc2ccn(Cc3ccccc3)n2)[C@H]1O [Example 28, 2-(((2R,3S,4R,5R)-5-(6-amino-2-chloro-9H-purin-9-yl)-3-((1-benzyl-1H-pyrazol-3-yl)ethynyl)-3,4-dihydroxytetrahydrofuran-2-yl)methoxy)malonic acid]",0.003 µM
18,"CC[C@@]1(O)[C@@H](COC(C(=O)O)C(=O)O)O[C@@H](n2cnc3c(N)nc(Cl)nc32)[C@@H]1O [Example 55, 2-(((2R,3S,4R,5R)-5-(6-amino-2-chloro-9H-purin-9-yl)-3-ethyl-3,4-dihydroxytetrahydrofuran-2-yl)methoxy)malonic acid]",0.035 µM
19,"C[C@@]1(O)[C@@H](COC(Cc2ccc(-c3ccccc3C(=O)O)cc2)(C(=O)O)c2nnn[nH]2)O[C@@H](n2cnc3c(N)nc(Cl)nc32)[C@@H]1O (stereo partly drawn) [Example 201, 4′-(2-(((2R,3S,4R,5R)-5-(6-amino-2-chloro-9H-purin-9-yl)-3,4-dihydroxy-3-methyltetrahydrofuran-2-yl)methoxy)-2-carboxy-2-(1H-tetrazol-5-yl)ethyl)-[1,1′-biphenyl]-2-carboxylic acid]",0.204 µM
20,"C#CCC(OC[C@H]1O[C@@H](n2cnc3c(N)nc(Cl)nc32)[C@H](O)[C@@]1(O)C#C)(C(=O)O)c1cscn1 (stereo partly drawn) [Example 184, 2-(((2R,3S,4R,5R)-5-(6-amino-2-chloro-9H-purin-9-yl)-3-ethynyl-3,4-dihydroxytetrahydrofuran-2-yl)methoxy)-2-(thiazol-4-yl)pent-4-ynoic acid]",0.102 µM
21,"C#C[C@@]1(O)[C@@H](COC(C(=O)O)C(=O)N2CCCC2)O[C@@H](n2cnc3c(NC4CCCC4)nc(Cl)nc32)[C@@H]1O (stereo partly drawn) [Example 114, 2-(((2R,3S,4R,5R)-5-(2-chloro-6-(cyclopentylamino)-9H-purin-9-yl)-3-ethynyl-3,4-dihydroxytetrahydrofuran-2-yl)methoxy)-3-oxo-3-(pyrrolidin-1-yl)propanoic acid]",0.177 µM
22,"C#C[C@@]1(O)[C@@H](COC(C(=O)O)c2cscn2)O[C@@H](n2cnc3c(N)nc(Cl)nc32)[C@@H]1O (stereo partly drawn) [Example 179, 2-(((2R,3S,4R,5R)-5-(6-amino-2-chloro-9H-purin-9-yl)-3-ethynyl-3,4-dihydroxytetrahydrofuran-2-yl)methoxy)-2-(thiazol-4-yl)acetic acid]",0.32 µM
23,"C#CCC(OC[C@H]1O[C@@H](n2cnc3c(N)nc(Cl)nc32)[C@H](O)[C@@]1(O)C#C)(C(=O)O)C(=O)O [Example 25, 2-(((2R,3S,4R,5R)-5-(6-amino-2-chloro-9H-purin-9-yl)-3-ethynyl-3,4-dihydroxytetrahydrofuran-2-yl)methoxy)-2-(prop-2-yn-1-yl)malonic acid]",0.007 µM
24,"C#C[C@@]1(O)[C@@H](CO[C@@](Cc2ccccc2)(C(=O)O)c2cscn2)O[C@@H](n2cnc3c(NC)nc(Cl)nc32)[C@@H]1O [Example 188, (R)-2-(((2R,3S,4R,5R)-5-(2-chloro-6-(methylamino)-9H-purin-9-yl)-3-ethynyl-3,4-dihydroxytetrahydrofuran-2-yl)methoxy)-3-phenyl-2-(thiazol-4-yl)propanoic acid]",0.134 µM
25,"C#C[C@@]1(O)[C@@H](COC(Cc2cccc(Cl)c2)(C(=O)O)C(=O)O)O[C@@H](n2cnc3c(N)nc(Cl)nc32)[C@@H]1O [Example 51, 2-(((2R,3S,4R,5R)-5-(6-amino-2-chloro-9H-purin-9-yl)-3-ethynyl-3,4-dihydroxytetrahydrofuran-2-yl)methoxy)-2-(3-chlorobenzyl)malonic acid]",0.003 µM
26,"C[C@@]1(O)[C@@H](CO[C@](Cc2ccc(-c3ccccc3)cc2)(C(=O)O)c2cscn2)O[C@@H](n2cnc3c(N)nc(Cl)nc32)[C@@H]1O (single isomer, unassigned) [Example 198]",2.27 µM
27,"C#C[C@@]1(O)[C@@H](COC(Cc2cccc(OC(F)(F)F)c2)(C(=O)O)c2cscn2)O[C@@H](n2cnc3c(N)nc(Cl)nc32)[C@@H]1O (stereo partly drawn) [Example 183, 2-(((2R,3S,4R,5R)-5-(6-amino-2-chloro-9H-purin-9-yl)-3-ethynyl-3,4-dihydroxytetrahydrofuran-2-yl)methoxy)-2-(thiazol-4-yl)-3-(3-(trifluoromethoxy)phenyl)propanoic acid]",0.056 µM
